Reference: patent US10322110B2, “Imidazole-based antimicrobial agents” (priority 2014, dated 2019)
Values after ≈ are worked out from the molar mass of the structure shown. Like-named read-outs stand apart in the source and are kept apart here.

Experiments:
Type in all cases: cell-based
[1] = system: Streptococcus pneumoniae (Chester, ATCC49619); assay: broth microdilution MIC assay, Streptococcus pneumoniae; conditions: MIC100 class score, 24 h
[2] = system: Staphylococcus aureus MSSA (Newman); assay: broth microdilution MIC assay, Staphylococcus aureus MSSA (Newman); conditions: for Antibacterial activity Staphylococcus aureus (MSSA): MIC100 class score, broth microdilution; for MIC: Staphylococcus aureus
[3] = system: Staphylococcus aureus MRSA (COL); assay: broth microdilution MIC assay, Staphylococcus aureus MRSA (COL); conditions: for MIC: Staphylococcus aureus, MRSA
[4] = system: Staphylococcus epidermidis (PCI 1200, ATCC12228); assay: broth microdilution MIC assay, Staphylococcus epidermidis; conditions: ATCC12228, read-out: Antibacterial activity SE (Staphylococcus epidermidis)
[5] = system: penicillin-, erythromycin- and tetracycline-resistant Streptococcus pneumoniae (ATCC 700677), ARSP; assay: microbe, parasite or virus in culture
[6] = system: Bacillus subtilis (Marburg strain, ATCC6051); assay: microbe, parasite or virus in culture; conditions: ATCC6051, read-out: Antibacterial activity BS (Bacillus substilis)
[7] = system: Human hepatocytes (HepaRG cells); assay: human cytotoxicity assay in vitro (CellTiter-Glo), hepatocytes; conditions: cytotoxicity class
[8] = read-out: Antibacterial activity MSSA (Staphylococcus aureus MSSA)
[9] = read-out: Antibacterial activity MRSA (Staphylococcus aureus MRSA)
[10] = 24 h, read-out: Antibacterial activity Staphylococcus aureus (MSSA)
[11] = 24 h, read-out: Antibacterial activity Staphylococcus aureus (MRSA)
[12] = ATCC700677, MIC activity class, read-out: Antibacterial activity ARSP (multi-drug resistant-SP)
[13] = ATCC700677, read-out: Antibacterial activity ARSP (multi-drug resistant-SP)
[14] = MIC100 class score, broth microdilution, 24 h, read-out: Antibacterial activity Staphylococcus aureus (MRSA)
[15] = MIC100 class score, broth microdilution, 24 h

SMILES | Antibacterial activity Streptococcus pneumoniae [1] | Antibacterial activity Staphylococcus aureus (MSSA) ([2]; 24 h) | MIC [2, 8] | MIC [3, 9] | MIC [4] | MIC [2, 10] | MIC [3, 11] | MIC [5, 12] | MIC [6] | MIC [5, 13] | MIC [3, 14] | cytotoxicity cell line H (hepatocytes) [7] | Antibacterial activity Staphylococcus aureus (MRSA) [3, 15]
Cc1[nH]c(-c2ccn(-c3ccccc3C(F)(F)F)c2)nc1-c1ccccc1 [Compound 33] | 2 (MIC100 of 6-10 μg/ml) | 3 (MIC100 of 3-10 μg/ml) | 3 to 10 µg/mL (≈ 8.17 to 27.2 µM) | 20 to 50 µg/mL (≈ 54.4 to 136 µM) | 11 to 201 µg/mL (≈ 29.9 to 547 µM) |  |  |  |  |  |  |  | 
Cc1nc(-c2ccc(-c3cc(C(F)(F)F)cc(C(F)(F)F)c3)o2)[nH]c1-c1ccccc1 [Compound 35] |  |  | 3 to 10 µg/mL (≈ 6.88 to 22.9 µM) | 20 to 50 µg/mL (≈ 45.8 to 115 µM) | 20 to 50 µg/mL (≈ 45.8 to 115 µM) | 3 to 10 µg/mL (≈ 6.88 to 22.9 µM) | 20 to 50 µg/mL (≈ 45.8 to 115 µM) | 6 to 10 µg/mL (≈ 13.8 to 22.9 µM) | 3 to 10 µg/mL (≈ 6.88 to 22.9 µM) |  |  |  | 
Cc1[nH]c(-c2ccc(-c3cccc(C(F)(F)F)c3)o2)nc1-c1ccc(F)cc1 [Compound 38] | 3 (MIC100 of 2-5 μg/ml) |  | 1 to 3 µg/mL (≈ 2.59 to 7.77 µM) | 1 to 3 µg/mL (≈ 2.59 to 7.77 µM) | 3 to 10 µg/mL (≈ 7.77 to 25.9 µM) |  |  |  |  | < 1 µg/mL |  |  | 
Cc1[nH]c(-c2ccc(-c3ccc(Cl)c(C(F)(F)F)c3)o2)nc1-c1ccccc1 [Compound 39] |  |  | 1 to 3 µg/mL (≈ 2.48 to 7.45 µM) | 3 to 10 µg/mL (≈ 7.45 to 24.8 µM) | 1 to 3 µg/mL (≈ 2.48 to 7.45 µM) | 3 to 10 µg/mL (≈ 7.45 to 24.8 µM) |  | 2 to 5 µg/mL (≈ 4.97 to 12.4 µM) | 3 to 10 µg/mL (≈ 7.45 to 24.8 µM) |  | 3 to 10 µg/mL (≈ 7.45 to 24.8 µM) |  | 
Cc1nc(-c2ccc(-c3ccc(Cl)c(OC(F)(F)F)c3)o2)[nH]c1-c1ccccc1 [Compound 41] |  |  | 3 to 10 µg/mL (≈ 7.16 to 23.9 µM) | 3 to 10 µg/mL (≈ 7.16 to 23.9 µM) | 11 to 201 µg/mL (≈ 26.3 to 480 µM) | 3 to 10 µg/mL (≈ 7.16 to 23.9 µM) | 3 to 10 µg/mL (≈ 7.16 to 23.9 µM) | < 1 µg/mL | 3 to 10 µg/mL (≈ 7.16 to 23.9 µM) |  |  | 2 | 
Cc1[nH]c(-c2ccc(-c3ccc(Cl)c(C(F)(F)F)c3)o2)nc1-c1ccc(F)cc1 [Compound 42] |  |  | 1 to 3 µg/mL (≈ 2.38 to 7.13 µM) |  | 3 to 10 µg/mL (≈ 7.13 to 23.8 µM) |  |  | < 1 µg/mL | 1 to 3 µg/mL (≈ 2.38 to 7.13 µM) |  |  |  | 
Cc1nc(-c2ccc(-c3ccc(Cl)c(OC(F)(F)F)c3)o2)[nH]c1-c1ccc(F)cc1 [Compound 43] |  | 3 (MIC100 of 3-10 μg/ml) | 3 to 10 µg/mL (≈ 6.87 to 22.9 µM) | 11 to 201 µg/mL (≈ 25.2 to 460 µM) | 20 to 50 µg/mL (≈ 45.8 to 114 µM) |  |  | < 1 µg/mL | 3 to 10 µg/mL (≈ 6.87 to 22.9 µM) |  |  | 3 | 2 (MIC100 of 11-201 μg/ml)
Cc1nc(-c2ccc(-c3ccc(Cl)c(OC(F)(F)F)c3)o2)[nH]c1-c1ccc(Cl)cc1 [Compound 44] |  |  | 1 to 3 µg/mL (≈ 2.21 to 6.62 µM) | 11 to 201 µg/mL (≈ 24.3 to 443 µM) | 11 to 201 µg/mL (≈ 24.3 to 443 µM) |  |  |  | 1 to 3 µg/mL (≈ 2.21 to 6.62 µM) |  |  | 2 | 2 (MIC100 of 11-201 μg/ml)
Cc1[nH]c(-c2ccc(-c3ccc(C(F)(F)F)cc3)o2)nc1-c1ccccc1 [Compound 45] |  |  | 3 to 10 µg/mL (≈ 8.14 to 27.1 µM) | 11 to 201 µg/mL (≈ 29.9 to 546 µM) | 3 to 10 µg/mL (≈ 8.14 to 27.1 µM) | 3 to 10 µg/mL (≈ 8.14 to 27.1 µM) |  | 2 to 5 µg/mL (≈ 5.43 to 13.6 µM) | 3 to 10 µg/mL (≈ 8.14 to 27.1 µM) |  | 3 to 10 µg/mL (≈ 8.14 to 27.1 µM) |  | 
Cc1[nH]c(-c2ccc(-c3ccc(C(F)(F)F)cc3)s2)nc1-c1ccccc1 [Compound 46] | 3 (MIC100 of 2-5 μg/ml) | 2 (MIC100 of 11-201 μg/ml) | 11 to 201 µg/mL (≈ 28.6 to 523 µM) |  |  |  |  |  |  | 2 to 5 µg/mL (≈ 5.2 to 13 µM) |  |  | 
Cc1[nH]c(-c2ccc(-c3ccc(OC(F)(F)F)cc3)o2)nc1-c1ccc(Cl)cc1 [Compound 48] |  | 3 (MIC100 of 3-10 μg/ml) | 3 to 10 µg/mL (≈ 7.16 to 23.9 µM) | 3 to 10 µg/mL (≈ 7.16 to 23.9 µM) | 11 to 201 µg/mL (≈ 26.3 to 480 µM) |  |  | < 1 µg/mL | 3 to 10 µg/mL (≈ 7.16 to 23.9 µM) |  |  | 2 | 
Cc1[nH]c(-c2ccc(-c3ccc(C(F)(F)F)c(Cl)c3)o2)nc1-c1ccc(F)cc1 [Compound 49] | 3 (MIC100 of 2-5 μg/ml) | 3 (MIC100 of 3-10 μg/ml) | 3 to 10 µg/mL (≈ 7.13 to 23.8 µM) | 3 to 10 µg/mL (≈ 7.13 to 23.8 µM) | 11 to 201 µg/mL (≈ 26.1 to 478 µM) |  |  |  |  | < 1 µg/mL |  | 3 | 2 (MIC100 of 11-201 μg/ml)
Cc1[nH]c(-c2ccc(-c3ccc(OC(F)(F)F)c(Cl)c3)o2)nc1-c1ccc(Cl)cc1 [Compound 50] |  |  | 3 to 10 µg/mL (≈ 6.62 to 22.1 µM) | 11 to 201 µg/mL (≈ 24.3 to 443 µM) | 20 to 50 µg/mL (≈ 44.1 to 110 µM) | 3 to 10 µg/mL (≈ 6.62 to 22.1 µM) | 11 to 201 µg/mL (≈ 24.3 to 443 µM) |  |  |  |  |  | 
FC(F)(F)Oc1ccccc1-c1ccc(-c2ncc(-c3ccccc3)[nH]2)o1 [Compound 63] | 3 (MIC100 of 2-5 μg/ml) | 3 (MIC100 of 3-10 μg/ml) | 3 to 10 µg/mL (≈ 8.1 to 27 µM) | 3 to 10 µg/mL (≈ 8.1 to 27 µM) | 3 to 10 µg/mL (≈ 8.1 to 27 µM) |  |  |  |  |  |  | 2 | 
FC(F)(F)Oc1ccccc1-c1ccc(-c2nc(Cl)c(-c3ccccc3)[nH]2)o1 [Compound 64] |  | 2 (MIC100 of 11-201 μg/ml) | 3 to 10 µg/mL (≈ 7.41 to 24.7 µM) | 20 to 50 µg/mL (≈ 49.4 to 124 µM) | 20 to 50 µg/mL (≈ 49.4 to 124 µM) |  |  | 2 to 5 µg/mL (≈ 4.94 to 12.4 µM) | 20 to 50 µg/mL (≈ 49.4 to 124 µM) |  |  | 3 | 
FC(F)(F)Oc1ccccc1-c1ccc(-c2nc(-c3ccccc3Cl)c[nH]2)o1 [Compound 67] | 3 (MIC100 of 2-5 μg/ml) |  |  |  | 11 to 201 µg/mL (≈ 27.2 to 497 µM) |  |  |  |  | 6 to 10 µg/mL (≈ 14.8 to 24.7 µM) |  | 2 | 
